How the values were obtained:
[1] = system: diet-induced obesity (DIO) mice; assay: Glucose tolerance, insulin tolerance and serum biochemistry in DIO mice; assay type: in vivo, mouse
Description: (§1) C57BL/6J male mice were obtained from Jackson laboratory (Bar Harbor, ME) and maintained on a 12 h light (6:00 AM to 6:00 PM)—12 h dark (6:00 PM to 6:00 AM) cycle at an ambient temperature of 22±1° C. All animals had access to diet and water ad libitum. All procedures involving animals were approved by the Institutional Animal Care and Use Committee of the University of Oklahoma Health Science Center. All experiments were performed with age-matched male mice. The mice were fed a high-fat diet (HFD) (60% kcal fat, Bio-Serv, NJ, USA) starting from the age of 6 weeks until study end. […] Food intake was determined manually by measuring the amount of input food subtracting the amount of the food remaining in the food hopper and the crumbs on the bedding of the cage each day for three days during the 4th week of the treatment. Packed cell volume (PCV) was measured with blood drawn from tail on a LW Scientific E8 centrifuge (LW Scientific, Lawrenceville, Georgia, USA) microhematocrit centrifuge at the end of study. For all other measurements, the blood was drawn at the time of euthanization.
Intraperitoneal glucose tolerance test (ipGTT) was performed after 6-h fasting. Blood glucose levels were measured at 0, 15, 30, 60, and 120 min glucometer (OneTouch Ultra 2 Meter) after an intraperitoneal administration of glucose at dose of 1.5 g/kg body weight. Intraperitoneal insulin tolerance test (ipITT) was performed after 6 h fasting. Blood glucose levels were measured at 0, 15, 30, 60, and 120 min after an intraperitoneal administration of human insulin at dose of 1.2 IU/kg body weight.
Serum insulin (ALPCO, NH, USA), serum cholesterol TG (Cayman Chem., MI, USA) and FFAs (Bioassay system, CA, USA) were determined by ELISA.

[2] = system: diet-induced obesity (DIO) mice; assay: Body weight, body composition and indirect calorimetry in DIO mice; assay type: in vivo, mouse
Description: as §1
Body lean and fat composition was determined by EchoMRI test.
The mice were individually housed in chambers of a Promethion Core Monitoring system (Sable Systems, Las Vegas, NV, USA). After a 1-day acclimation period, their oxygen consumption and carbon dioxide production were measured for the next three consecutive days. The respiratory exchange ratio and energy expenditure were calculated using standard equations

[3] = system: primary preadipocytes isolated from iWAT and eWAT; assay: Browning gene expression in differentiated primary preadipocytes; assay type: cell-based, mouse; details: differentiated with WO95E vs DMSO
Description: 3T3-L1 preadipocytes were differentiated. In brief, cells at around 60%-70% confluence were induced for differentiation with DMEM containing 10% FBS, 1 μg/ml insulin, 1 μM dexamethasone, and 0.5 mM IBMX for 48 h in the presence or absence of compounds and were then exposed in maintenance medium (1 μg/mL insulin in 10% FBS/DMEM) containing compounds. The medium was renewed every 2 days for total 8 days of differentiation when the cells became differentiated and lipid droplets were apparent. For primary preadipocyte differentiation, isolation of primary preadipocytes was performed. Briefly, fat depots were digested in PBS containing collagenase D (1.5 U/ml) at 37° C. for 40-45 min. The primary cells were filtered through 70 μm cell strainer and centrifuge at 700 g to collect stromal vascular fraction (SVF). The SVF cell pellets were plated on collagen coated plates. […]
Total RNA (2 μg) was isolated from tissues or cells using TRIzol reagents (Life Technologies) and reverse transcribed using oligo d(T) primers (New England Biosystems) and SuperScript IV reverse transcription kit (Applied Biosystems). qPCR was performed in a CFX96 Touch Real-Time PCR detection system using SYBR Green mix (Applied Biosystems). […] Relative mRNA expression was determined by the ΔΔCt method normalized to TBP mRNA. […]

Compound: Cc1c(C)n(Cc2ccc(-c3ccccc3C(=O)O)cc2)c2ccc(C(=O)NCc3cccc(O)c3)cc12 [WO95E, 4′-((5-((3-hydroxybenzyl)carbamoyl)-2,3-dimethyl-1H-indol-1-yl)methyl)-[1,1′-biphenyl]-2-carboxylic acid]
- serum level of free fatty acid ([1]; 15 mg/kg i.p. daily 4 weeks): decreased
- total serum cholesterol ([1]; 15 mg/kg i.p. daily 4 weeks): downward trend but did not reach statistically significant
- triglyceride level ([1]; 15 mg/kg i.p. daily 4 weeks, data not shown): unchanged
- glucose tolerance (ipGTT, peak glucose and AUC) ([1]; 15 mg/kg i.p. daily, 2 weeks, vs vehicle): significantly improved
- insulin sensitivity (ipITT) ([1]; 15 mg/kg i.p. daily, 2.5 weeks, vs vehicle): enhanced
- fasting and refeeding plasma levels of insulin ([1]; 15 mg/kg i.p. daily, vs vehicle): markedly decreased
- body weight ([2]; DIO mice on HFD, 15 mg/kg i.p. daily 4 weeks): reduced body weight
- fat mass (EchoMRI) ([2]; DIO mice, 15 mg/kg i.p. daily): significant decrease
- lean mass (EchoMRI) ([2]; DIO mice, 15 mg/kg i.p. daily): no noticeable change
- daily food intake ([2]; DIO mice, 4th week of treatment, vs vehicle): same amount of daily food intake
- average oxygen consumption (VO2) ([2]; DIO mice, indirect calorimetry after 4-week treatment): higher
- mean energy expenditure ([2]; DIO mice, indirect calorimetry, vs vehicle): significantly heightened
- average carbon dioxide production (VCO2) ([2]; DIO mice, indirect calorimetry, p value 0.08 for daytime): increased
- respiratory exchange ratio (RER) ([2]; DIO mice, vs vehicle, data not shown): similar
- overall activity (distance) ([2]; DIO mice, difference statistically insignificant): upward trend
- expression levels of Prdm16, UCP1, PCG1α, Ppara in iWAT adipocytes [3]: significantly increased
